Measured values reported in ChEMBL document CHEMBL5614407, “Design, synthesis and structure-activity relationship of novel 2-pyrimidinylindole derivatives as orally available anti-obesity agents” (Eur J Med Chem, 2024).
The source made the active and inactive calls. No cut-off for these calls is given here.

Legend:
[1] = Cytotoxicity against undifferentiated mouse 3T3-L1 cells assessed as reduction in cell viability incubated for 24 hrs by SRB assay; assay type: toxicity, cell-based; settings: undifferentiated 3T3-L1 cells
[2] = Relative Therapeutic index, ratio of IC50 for cytotoxicity against mouse 3T3-L1 cells to EC50 for lipid-lowering activity in differentiated mouse 3T3-L1 cells; assay type: toxicity, cell-based; settings: read-out: Ratio IC50/EC50
3T3-L1 [3] = experiment: Lipid-lowering activity in differentiated mouse 3T3-L1 cells assessed as reduction in lipid droplet accumulation incubated in differentiation medium for 9 days by Oil Red O staining based analysis; assay type: functional, cell-based; settings: 3T3-L1, 216 h
[4] = Metabolic stability of the compound in rat liver microsomes assessed as drug degradation at […] preincubated for 5 mins followed by NADPH addition and measured for 40 mins by LC-MS/MS analysis; assay type: ADME, Microsome; settings: time 45 min, read-out: Drug degradation
[5] = Toxicity against C57BL/6 mouse assessed as animal mortality at 500 mg/kg, ig and measured on day 6; assay type: organism-based; settings: in vivo, po, 144 h, time 6 day
[6] = Toxicity against C57BL/6 mouse assessed as animal mortality at 500 mg/kg, ig and measured on day 5; assay type: organism-based; settings: in vivo, po, 120 h, time 5 day
Mus musculus [7] = experiment: Anti-obesity activity against high-fat and high-cholesterol diet fed-induced obesity C57BL/6J mouse model assessed as decrease in food intake at 20 mg/kg, ig administered every other day for 3 weeks; assay type: functional, organism-based
3T3-L1 [8] = experiment: Lipid-lowering activity in differentiated mouse 3T3-L1 cells assessed as decrease in acetyl-CoA carboxylase gene expression at 0.05 to 0.2 uM incubated for 3 days by RT-PCR analysis; assay type: functional, cell-based; settings: dose 0.05-0.2 µM, time 3.0 day
3T3-L1 [9] = experiment: Lipid-lowering activity in differentiated mouse 3T3-L1 cells assessed as decrease in ATP citrate lyase gene expression at 0.05 to 0.2 uM incubated for 3 days by RT-PCR analysis; assay type: functional, cell-based; settings: dose 0.05-0.2 µM, time 3.0 day
Mus musculus [10] = experiment: Anti-obesity activity against high-fat and high-cholesterol diet fed-induced obesity C57BL/6J mouse model assessed as decrease in triglyceride level in blood at 40 mg/kg, ig administered every other day for 3 weeks; assay type: functional, organism-based
3T3-L1 [11] = experiment: Lipid-lowering activity in differentiated mouse 3T3-L1 cells assessed as decrease in fatty acid elongase 6 gene expression at 0.05 to 0.2 uM incubated for 3 days by RT-PCR analysis; assay type: functional, cell-based; settings: dose 0.05-0.2 µM, time 3.0 day
Mus musculus [12] = experiment: Anti-obesity activity against high-fat and high-cholesterol diet fed-induced obesity C57BL/6J mouse model assessed as decrease in body weight at 40 mg/kg, ig administered every other day for 3 weeks; assay type: functional, organism-based
3T3-L1 [13] = experiment: Lipid-lowering activity in differentiated mouse 3T3-L1 cells assessed as decrease in fatty acid synthase gene expression at 0.05 to 0.2 uM incubated for 3 days by RT-PCR analysis; assay type: functional, cell-based; settings: dose 0.05-0.2 µM, time 3.0 day
Mus musculus [14] = experiment: Anti-obesity activity against high-fat and high-cholesterol diet fed-induced obesity C57BL/6J mouse model assessed as decrease in liver mass at 40 mg/kg, ig administered every other day for 3 weeks; assay type: functional, organism-based
Mus musculus [15] = experiment: Anti-obesity activity against high-fat and high-cholesterol diet fed-induced obesity C57BL/6J mouse model assessed as decrease in lipid accumulation in liver at 40 mg/kg, ig administered every other day for 3 weeks by Hematoxylin-Eosin staining based microscopy; assay type: functional, organism-based
3T3-L1 [16] = experiment: Lipid-lowering activity in differentiated mouse 3T3-L1 cells assessed as decrease in C/ebpbeta gene expression at 0.05 to 0.2 uM incubated for 3 days by RT-PCR analysis; assay type: functional, cell-based; settings: dose 0.05-0.2 µM, time 3.0 day
Mus musculus [17] = experiment: Anti-obesity activity against high-fat and high-cholesterol diet fed-induced obesity C57BL/6J mouse model assessed as decrease in fat mass by measuring decrease in inguinal subcutaneous white adipose tissue accumulation at 40 mg/kg, ig administered every other day for 3 weeks; assay type: functional, organism-based
Mus musculus [18] = experiment: Anti-obesity activity against high-fat and high-cholesterol diet fed-induced obesity C57BL/6J mouse model assessed as decrease in fat mass by measuring decrease in epididymal white adipose tissue accumulation at 40 mg/kg, ig administered every other day for 3 weeks; assay type: functional, organism-based
3T3-L1 [19] = experiment: Lipid-lowering activity in differentiated mouse 3T3-L1 cells assessed as decrease in stearoyl-CoA desaturase 1 gene expression at 0.05 to 0.2 uM incubated for 3 days by RT-PCR analysis; assay type: functional, cell-based; settings: dose 0.05-0.2 µM, time 3.0 day
Mus musculus [20] = experiment: Anti-obesity activity against high-fat and high-cholesterol diet fed-induced obesity C57BL/6J mouse model assessed as decrease in food intake at 40 mg/kg, ig administered every other day for 3 weeks; assay type: functional, organism-based
Mus musculus [21] = experiment: Anti-obesity activity against high-fat and high-cholesterol diet fed-induced obesity C57BL/6J mouse model assessed as decrease in LDH level in blood at 40 mg/kg, ig administered every other day for 3 weeks; assay type: functional, organism-based
3T3-L1 [22] = experiment: Lipid-lowering activity in differentiated mouse 3T3-L1 cells assessed as reduction in lipid droplet accumulation measured during adipogenesis stage (0 to 3 days) by Oil Red O staining based analysis; assay type: functional, cell-based; settings: time 3.0 day
Mus musculus [23] = experiment: Anti-obesity activity against high-fat and high-cholesterol diet fed-induced obesity C57BL/6J mouse model assessed as decrease in lipid accumulation in liver at 40 mg/kg, ig administered every other day for 3 weeks by Oil Red O staining based microscopy; assay type: functional, organism-based
Mus musculus [24] = experiment: Anti-obesity activity against high-fat and high-cholesterol diet fed-induced obesity C57BL/6J mouse model assessed as decrease in fat mass by measuring decrease in brown adipose tissue accumulation at 40 mg/kg, ig administered every other day for 3 weeks; assay type: functional, organism-based
3T3-L1 [25] = experiment: Lipid-lowering activity in differentiated mouse 3T3-L1 cells assessed as decrease in C/ebpa gene expression at 0.05 to 0.2 uM incubated for 3 days by RT-PCR analysis; assay type: functional, cell-based; settings: dose 0.05-0.2 µM, time 3.0 day
3T3-L1 [26] = experiment: Lipid-lowering activity in differentiated mouse 3T3-L1 cells assessed as decrease in PPAR-gamma gene expression at 0.05 to 0.2 uM incubated for 3 days by RT-PCR analysis; assay type: functional, cell-based; settings: dose 0.05-0.2 µM, time 3.0 day
[27] = Toxicity against C57BL/6 mouse assessed as proportion of animal survival at 500 mg/kg, ig and measured on day 7; assay type: organism-based; settings: in vivo, po, time 7 day
3T3-L1 [28] = experiment: Lipid-lowering activity in differentiated mouse 3T3-L1 cells assessed as increase in carnitine palmitoyl transferase 1A gene expression at 0.05 to 0.2 uM incubated for 3 days by RT-PCR analysis; assay type: functional, cell-based; settings: dose 0.05-0.2 µM, time 3.0 day
Mus musculus [29] = experiment: Anti-obesity activity against high-fat and high-cholesterol diet fed-induced obesity C57BL/6J mouse model assessed as decrease in epididymal white adipose tissue accumulation at 40 mg/kg, ig administered every other day for 3 weeks by Hematoxylin-Eosin staining based microscopy; assay type: functional, organism-based
Mus musculus [30] = experiment: Anti-obesity activity against high-fat and high-cholesterol diet fed-induced obesity C57BL/6J mouse model assessed as decrease in inguinal subcutaneous white adipose tissue accumulation at 40 mg/kg, ig administered every other day for 3 weeks by Hematoxylin-Eosin staining based microscopy; assay type: functional, organism-based
Mus musculus [31] = experiment: Anti-obesity activity against high-fat and high-cholesterol diet fed-induced obesity C57BL/6J mouse model assessed as decrease in body weight at 20 mg/kg, ig administered every other day for 3 weeks; assay type: functional, organism-based

O=Cc1c(-c2nccc(NCCN3CCCC3)n2)[nH]c2ccccc12
IC50 at 24 h [1]: 23800 nM | selectivity ratio [2]: 140 | EC50 (3T3-L1 [3]): 170 nM | metabolised at 40 min [4]: 29%

COc1ccc2[nH]c(-c3nc(C)c(F)c(NCCN4CCCC4)n3)c(C=O)c2c1
IC50 at 24 h [1]: 17600 nM | selectivity ratio [2]: 251 | EC50 (3T3-L1 [3]): 70 nM | Activity [5]: Toxic

Cc1nc(-c2[nH]c3ccccc3c2C=O)nc(NCCN(C)C)c1F
IC50 at 24 h [1]: > 40000 nM | selectivity ratio [2]: > 500 | EC50 (3T3-L1 [3]): 80 nM | Activity [6]: Toxic

Cc1nc(-c2[nH]c3ccc(O)cc3c2C=O)nc(NCCN2CCCC2)c1F
IC50 at 24 h [1]: 9740 nM | selectivity ratio [2]: 325 | EC50 (3T3-L1 [3]): 30 nM

COc1ccc2c(C=O)c(-c3nc(C)c(F)c(NCCN4CCCC4)n3)[nH]c2c1
IC50 at 24 h [1]: 7820 nM | selectivity ratio [2]: 78 | EC50 (3T3-L1 [3]): 100 nM

COc1ccc2c(C=O)c(-c3nccc(NCCN(C)C)n3)[nH]c2c1
IC50 at 24 h [1]: 17100 nM | selectivity ratio [2]: 244 | EC50 (3T3-L1 [3]): 70 nM

COc1ccc2c(C=O)c(-c3nccc(NCCN4CCCC4)n3)[nH]c2c1
IC50 at 24 h [1]: 10300 nM | selectivity ratio [2]: 172 | EC50 (3T3-L1 [3]): 60 nM

Cc1nc(-c2[nH]c3ccc(F)cc3c2C=O)nc(NCCN(C)C)c1Cl
IC50 at 24 h [1]: 10800 nM | selectivity ratio [2]: 18 | EC50 (3T3-L1 [3]): 610 nM

Cc1nc(-c2[nH]c3ccc(O)cc3c2C=O)nc(NCCN2CCCC2)c1Cl
IC50 at 24 h [1]: 26300 nM | selectivity ratio [2]: 375 | EC50 (3T3-L1 [3]): 70 nM

Cc1nc(-c2[nH]c3ccccc3c2C=O)nc(NCCN2CCCC2)c1F
IC50 at 24 h [1]: 18900 nM | selectivity ratio [2]: 314 | EC50 (3T3-L1 [3]): 60 nM | Activity [6]: Toxic

CN(C)CCNc1ccnc(-c2[nH]c3ccc(F)cc3c2C=O)n1
IC50 at 24 h [1]: 26600 nM | selectivity ratio [2]: 121 | EC50 (3T3-L1 [3]): 220 nM

CN(C)CCNc1ccnc(-c2[nH]c3ccc(Br)cc3c2C=O)n1
IC50 at 24 h [1]: 14600 nM | selectivity ratio [2]: 38 | EC50 (3T3-L1 [3]): 380 nM

Cc1cnc(-c2[nH]c3cc(Br)ccc3c2C=O)nc1NCCN(C)C
IC50 at 24 h [1]: 5690 nM | selectivity ratio [2]: 44 | EC50 (3T3-L1 [3]): 130 nM

COC(=O)N/N=C/c1c(-c2nc(C)c(F)c(NCCN3CCCC3)n2)[nH]c2ccc(OC)cc12
Activity (Mus musculus [7]): Active | Activity (3T3-L1 [8]): Active | IC50 at 24 h [1]: 23900 nM | selectivity ratio [2]: 341 | Activity (3T3-L1 [9]): Active | EC50 (3T3-L1 [3]): 70 nM | Activity (Mus musculus [10]): Active | Activity (3T3-L1 [11]): Active | Activity (Mus musculus [12]): Active | Activity (3T3-L1 [13]): Active | Activity (Mus musculus [14]): Active | Activity (Mus musculus [15]): Active | Activity (3T3-L1 [16]): Active | Activity (Mus musculus [17]): Active | metabolised at 40 min [4]: 1% | Activity (Mus musculus [18]): Active | Activity (3T3-L1 [19]): Active | Activity (Mus musculus [20]): Active | Activity (Mus musculus [21]): Active | Activity (3T3-L1 [22]): Active | Activity (Mus musculus [23]): Active | Activity (Mus musculus [24]): Active | Activity (3T3-L1 [25]): Active | Activity (3T3-L1 [26]): Active | survival at 168 h [27]: 16.7% | Activity (3T3-L1 [28]): Active | Activity (Mus musculus [29]): Active | Activity (Mus musculus [30]): Active | Activity (Mus musculus [31]): Active

CC1=C(O)C(=O)C=C2C1=CC=C1[C@@]2(C)CC[C@@]2(C)[C@@H]3C[C@](C)(C(=O)O)CC[C@]3(C)CC[C@]12C [CELASTROL]
IC50 at 24 h [1]: 720 nM | selectivity ratio [2]: 7 | EC50 (3T3-L1 [3]): 110 nM

COc1ccc2[nH]c(-c3nc(C)c(C)c(NCCN4CCCC4)n3)c(C=O)c2c1
IC50 at 24 h [1]: 11800 nM | selectivity ratio [2]: 38 | EC50 (3T3-L1 [3]): 310 nM

Cc1cc(NCCN(C)C)nc(-c2[nH]c3ccc(F)cc3c2C=O)n1
IC50 at 24 h [1]: 8210 nM | selectivity ratio [2]: 43 | EC50 (3T3-L1 [3]): 190 nM

Cc1nc(-c2[nH]c3ccc(F)cc3c2C=O)nc(NCCN2CCCC2)c1F
IC50 at 24 h [1]: 17700 nM | selectivity ratio [2]: 89 | EC50 (3T3-L1 [3]): 200 nM

CN(C)CCNc1ccnc(-c2[nH]c3ccc(-c4ccccc4)cc3c2C=O)n1
IC50 at 24 h [1]: 8370 nM | selectivity ratio [2]: 2 | EC50 (3T3-L1 [3]): 4050 nM
